The results in this text go back to ChEMBL document CHEMBL5042502, “Discovery of Potent and Selective 2-(Benzylthio)pyrimidine-based DCN1-UBC12 Inhibitors for Anticardiac Fibrotic Effects” (J Med Chem, 2022).

Activity calls are given as the source filed them. The calls are words filed in the database; no cut-off is given here.

The target of series [1] is T1, DCN1-like protein 5 (Homo sapiens, UniProt Q9BTE7).
T1 sequence (Q9BTE7 whole entry): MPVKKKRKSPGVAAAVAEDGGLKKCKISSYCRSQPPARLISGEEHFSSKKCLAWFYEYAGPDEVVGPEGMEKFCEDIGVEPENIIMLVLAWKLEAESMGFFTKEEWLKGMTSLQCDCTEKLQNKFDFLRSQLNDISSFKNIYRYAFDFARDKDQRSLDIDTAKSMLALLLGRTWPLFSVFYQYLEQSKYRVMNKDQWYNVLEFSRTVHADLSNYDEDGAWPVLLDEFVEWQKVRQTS
As to the kind of experiment: Binding affinity to DCN5 (unknown origin) assessed as inhibitory constant.

In series [2] the test system is Fibroblast of cardiac tissue. As to the kind of experiment: Reversal of Ang II-induced increase in DCN1 secretion in mouse cardiac fibroblast at 1 uM preincubated for 2 hrs followed by Ang-II stimulation and further incubated for 24 hrs by western blot analysis. The settings on record: time 26.0 hrs. The format is functional, cell-based. (In general: Immunoblotting shows a protein as a band on a membrane.)

Series [3] has as its system Cardiac fibroblast. Kind of series: Inhibition of DCN1 in TGF-beta-treated Sprague-Dawley rat cardiac fibroblast assessed as inhibition of cell proliferation at 0.1 to 3 uM preincubated for 2 hrs followed by TGF-beta stimulation and further incubated for 24 hrs by MTT assay. In kind it is cell-based. Conditions: dose 0.1-3 µM, time 26.0 hrs. Background: Formazan colour is commonly taken as a measure of viable cells.

A short description of series [4]: Toxicity in 24 hr starved C57BL/6 mouse assessed as pathological change in heart at 2 g/Kg administered via gavage measured after 2 weeks by H and E staining based histopathological analysis. In kind it is tissue-based. The settings on record: in vivo, po, 2000 mg/kg.
Series [5] concerns the target DCN1-like protein 2 (Homo sapiens, UniProt Q6PH85). Kind of series: Binding affinity to DCN2 (unknown origin) assessed as inhibitory constant.
Series [6] has as its system Fibroblast of cardiac tissue. Kind of series: Effect on Ang II-induced in Cul5 neddylation in mouse cardiac fibroblast at 1 uM preincubated for 2 hrs followed by Ang-II stimulation and further incubated for 24 hrs by western blot analysis. In kind it is functional, cell-based. The settings on record: time 26.0 hrs.
Series [7] can be described thus: Toxicity in 24 hr starved C57BL/6 mouse assessed as pathological change in kidney at 2 g/Kg administered via gavage measured after 2 weeks by H and E staining based histopathological analysis. In kind it is tissue-based. Conditions: in vivo, po, 2000 mg/kg.
For series [8], the target named is DCN1-like protein 1 (Homo sapiens, UniProt Q96GG9). As to the kind of experiment: Inhibition of GST-tagged DCN1 (unknown origin) using AcUBE2M1-21 incubated for 30 mins by HTRF assay.
DCN1-like protein 1, sequence (Q96GG9 whole entry): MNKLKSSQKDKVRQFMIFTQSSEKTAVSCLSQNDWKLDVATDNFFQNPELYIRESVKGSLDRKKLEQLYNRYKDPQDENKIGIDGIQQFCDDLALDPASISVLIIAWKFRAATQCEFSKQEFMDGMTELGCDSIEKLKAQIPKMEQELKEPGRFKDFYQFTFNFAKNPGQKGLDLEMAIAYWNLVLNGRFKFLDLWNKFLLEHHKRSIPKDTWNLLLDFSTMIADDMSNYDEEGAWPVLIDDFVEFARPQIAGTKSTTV
Series [9] concerns Fibroblast of cardiac tissue. Kind of series: Effect on Ang II-induced in Cul4A neddylation in mouse cardiac fibroblast at 1 uM preincubated for 2 hrs followed by Ang-II stimulation and further incubated for 24 hrs by western blot analysis. In kind it is functional, cell-based. The settings on record: time 26.0 hrs.
Series [10] deals with T2, DCN1-like protein 4 (Homo sapiens, UniProt Q92564).
T2 sequence (Q92564 whole entry): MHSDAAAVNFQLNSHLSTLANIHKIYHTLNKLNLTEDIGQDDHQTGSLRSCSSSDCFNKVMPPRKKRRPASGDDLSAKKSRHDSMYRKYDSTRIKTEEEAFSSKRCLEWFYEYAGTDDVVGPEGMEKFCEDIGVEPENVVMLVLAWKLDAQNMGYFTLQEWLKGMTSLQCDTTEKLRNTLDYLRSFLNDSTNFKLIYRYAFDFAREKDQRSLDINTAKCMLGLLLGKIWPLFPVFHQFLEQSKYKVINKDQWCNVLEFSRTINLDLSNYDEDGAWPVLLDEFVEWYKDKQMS
Kind of series: Binding affinity to DCN4 (unknown origin) assessed as inhibitory constant.

Series [11] in a line: Toxicity in 24 hr starved C57BL/6 mouse assessed as pathological change in lungs at 2 g/Kg administered via gavage measured after 2 weeks by H and E staining based histopathological analysis. The settings on record: in vivo, po, 2000 mg/kg.
The species named for series [12] is Homo sapiens. Kind of series: Inhibition of NEDD8-UBC12 (unknown origin) interaction in presence of ATP at 100 uM by densitometry. The settings on record: time 10.0 min.
Series [13] deals with Fibroblast of cardiac tissue. Kind of series: Reversal of Ang II-induced decrease in Nrf2 secretion in mouse cardiac fibroblast at 1 uM preincubated for 2 hrs followed by Ang-II stimulation and further incubated for 24 hrs by western blot analysis. The format is functional, cell-based. The settings on record: time 26.0 hrs.
In series [14] the test system is Cardiac fibroblast. As to the kind of experiment: Inhibition of DCN1 in Sprague-Dawley rat cardiac fibroblast assessed as suppression in DCN1-UBC12 interaction by measuring reduction in UBC12 level at 10 uM incubated for 5 hrs co-incubated with DCN1 antibody by co-immunoprecipitation pull down assay. The format is cell-based.

DCN1-like protein 2, sequence (Q6PH85 whole entry): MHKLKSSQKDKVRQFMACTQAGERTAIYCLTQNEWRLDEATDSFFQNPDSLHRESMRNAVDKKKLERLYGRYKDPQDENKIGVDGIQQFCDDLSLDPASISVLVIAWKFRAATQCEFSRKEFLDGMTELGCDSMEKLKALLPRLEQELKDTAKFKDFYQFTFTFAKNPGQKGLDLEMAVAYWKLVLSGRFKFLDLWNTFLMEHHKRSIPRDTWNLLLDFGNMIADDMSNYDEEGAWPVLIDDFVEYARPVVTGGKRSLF

Consider `COc1cc(-c2nc(SCc3ccc(Cl)cc3)nc(Sc3nnnn3C)c2C#N)cc(OC)c1OC`, for which the Ki (usually the equilibrium dissociation constant of an inhibitor or competing ligand from its target) in series [1] was found to be 28.9 µM; in [5], 18.8 µM; in [10], 22.4 µM. In addition, the result in series [2], in series [6], in series [9] and in [13] was Active. Further, the inhibition result in series [3] was “Dose-Dependent Effect”. Also, the Activity result in [4], in series [7] and in [11] was “Non-Toxic” each time. In [8], it took 0.00955 µM to reach half-maximal inhibition (IC50). Also, in series [12], the inhibition entry is “inactive”. Moreover, the inhibition entry in series [14] was “Active”.
